This is an account of results in PMC12040169 (PLOS Biology, 2025).

Each structure is given as a SMILES string.

The nature of this series: in vitro. Conditions: human, hela cells, % viability.

As to `COc1ccc(N2C(=O)CC(Nc3cc(C(=O)O)ccc3C)C2=O)c(OC)c1` (stereo not drawn) [CBK296650], the viability (usually a read-out of living cells in per cent, often relative to untreated cells) at 28.5 h, 10 µM came out at 114%.
The value for `O=C(COc1ccccc1[N+](=O)[O-])Nc1nc2c(s1)CCC2` [CBK296663] was 85.1%.
Consider `O=C(O)CC1(CC(=O)Nc2ccc(N3CCCC3=O)c(Cl)c2)CCCCC1` [CBK296664], for which the viability at 28.5 h, 10 µM is 96.3%.
As to `O=C(c1ccc(Cl)cc1)N1CCN(C(=O)c2cc(O)nc3ccccc23)CC1` [CBK296666], the viability at 28.5 h, 10 µM was found to be 103%.
Regarding `O=C(NCC1(c2ccccc2)CCC1)C1CCCN(C(=O)c2ccoc2)C1` (stereo not drawn) [CBK296670], the viability at 28.5 h, 10 µM is 85.6%.
For `Cc1ccc(S(N)(=O)=O)cc1C(=O)NC(C)CCc1ccccc1` (stereo not drawn) [CBK296671], the viability at 28.5 h, 10 µM stood at 87.2%.
The value for `O=C(O)c1cccc(CSCC(=O)N2CCC(Cc3ccccc3)CC2)c1` [CBK296675] was 102%; that for `COc1cc(C(C)=O)ccc1OCC(O)Cn1c(=O)n(-c2ccccc2)c(=O)c2ccccc21` (stereo not drawn) [CBK296677] was 94.4%.
Under `COc1ccc(C(NC(=O)CSCc2cccc(C(=O)O)c2)c2ccc(OC)cc2)cc1` [CBK296680] stands 97.6%.
For the compound `Cc1cc(N2CCN(C(=O)c3c[nH]c(=O)[nH]3)CC2)nc(C(C)C)n1` [CBK296681], the viability at 28.5 h, 10 µM was 111%.
With `CC(NC(=O)c1nn(-c2ccc(F)cc2)c2c1CCCC2)c1ccc2c(c1)OCCO2` (stereo not drawn) [CBK296682], the viability at 28.5 h, 10 µM is 103%.
For `COc1cc(C(=O)Nc2nc(Cc3n[nH]c(=S)n3C)cs2)ccc1C` [CBK296683], the viability at 28.5 h, 10 µM was 90.6%.
Under `O=C(c1ccc2c(c1)OCO2)N1CCN(C(=O)c2ccc(Cl)cc2F)CC1` [CBK296685] stands 99%; under `O=C(NCCCOc1ccccc1)N1CCN(S(=O)(=O)c2ccc(C(F)(F)F)cc2)CC1` [CBK296686], 87.9%.
In the case of `Cc1cccc2sc(NC(=O)CCCCCNC(N)=O)nc12` [CBK296689], the viability at 28.5 h, 10 µM was found to be 106%.
The value for `O=c1c2cccnc2ncn1CC(O)COc1ccc(-c2ccccc2)cc1` (stereo not drawn) [CBK296690] was 99.1%; that for `CCCCn1c(SCCC(=O)Nc2ccccc2C(=O)c2ccccc2)n[nH]c1=O` [CBK296693] was 87.3%; that for `Cc1ccc(NC(=O)c2ccccc2NS(=O)(=O)c2cccc(C(=O)O)c2)cc1` [CBK296695] was 122%.
The value for `Cc1ccc(C)c(-c2csc(NS(=O)(=O)c3cccc(C(=O)O)c3)n2)c1` [CBK296696] was 86.7%.
On to `O=C(O)c1cccc(S(=O)(=O)Nc2ccccc2C(=O)NCc2ccccc2)c1` [CBK296697], for which the viability at 28.5 h, 10 µM is 106%.
Under `Cc1cc(C)c(-c2csc(NS(=O)(=O)c3cccc(C(=O)O)c3)n2)cc1C` [CBK296698] stands 118%; under `Cc1nn(-c2ccc(F)cc2)c(C)c1C(=O)NCc1ccnc(N2CCCC2)c1` [CBK296700], 93.3%; under `COCCN(CCOC)C(=O)COc1c(Cl)cc(C(=O)O)cc1Cl` [CBK296704], 92.3%.
With `CC(C)C(NC(=O)c1ccc(CS(C)(=O)=O)cc1)c1ccc(C(C)(C)C)cc1` (stereo not drawn) [CBK296705], the viability at 28.5 h, 10 µM stood at 102%.
As for `O=C(O)c1sccc1S(=O)(=O)NCc1ccc(COCC(F)(F)F)cc1` [CBK296706], the viability at 28.5 h, 10 µM stood at 110%.
For `O=C(O)c1sccc1S(=O)(=O)NCc1ccc(Cn2cccn2)cc1` [CBK296707], the viability at 28.5 h, 10 µM amounted to 99.4%.
With `CN(Cc1c(F)cccc1Cl)C(=O)CSc1nc(CC(=O)O)cs1` [CBK296708], the viability at 28.5 h, 10 µM was found to be 95.3%.
Under `O=C(c1cccc(S(=O)(=O)Nc2ccc(Br)cc2)c1)N1CCCC1` [CBK296709] stands 67.4%; under `O=C(O)c1cc(S(=O)(=O)Nc2ccc3nc(N4CCCC4)sc3c2)ccc1Br` [CBK296710], 91.5%.
Regarding `O=C(Nc1ccnn1Cc1cc(Br)cs1)c1ccc2ncsc2c1` [CBK296713], the viability at 28.5 h, 10 µM is 105%.
